Laboratory results taken from patent publication US20060009493A1, “Indolinone hydrazides as c-Met inhibitors” (Sugen, Inc., priority 2003, published 2006).

Target: T1, GST fusion protein containing the Met kinase domain (Homo sapiens, UniProt P08581)
T1 construct: Purified GST fusion protein containing the Met kinase domain, Sugen, Inc
Assay: MET Transphosphorylation Assay (ELISA, poly(Glu,Tyr) 4:1 substrate)
Type: biochemical
Settings: met transphosphorylation of poly(glutamic acid:tyrosine 4:1) substrate; two values in a cell separated by '/'
Description: MET Transphosphorylation Assay
This assay is used to measure phosphotyrosine levels on a poly(glutamic acid:tyrosine (4:1)) substrate as a means for identifying agonists/antagonists of met transphosphorylation of the substrate.
• 1. […] PBS, Gibco Catalog # 450-1300EB • 4. 50 mM HEPES • 5. […] Purified GST fusion protein containing the Met kinase domain, Sugen, Inc. • 7. TBST Buffer. • 8. 10% aqueous (MilliQue H2O) DMSO. • 9. […] 2× Kinase Dilution Buffer: for 100 ml, mix 10 mL 1M HEPES at pH 7.5 with 0.4 mL 5% BSA/PBS, 0.2 mL 0.1 M sodium orthovanadate and 1 mL 5M sodium chloride in 88.4 mL dH2O. • 11. 4×ATP Reaction Mixture: for 10 mL, mix 0.4 mL 1 M manganese chloride and 0.02 mL 0.1 M ATP in […] dH2O. • 12. 4× Negative Controls Mixture: for 10 mL, mix 0.4 mL 1 M manganese chloride in 9.6 mL dH2O.
13. […] 500 mM EDTA. • 15. Antibody Dilution Buffer: for 100 mL, mix 10 mL 5% BSA/PBS, 0.5 mL 5% Carnation Instant Milk® in PBS and 0.1 mL 0.1 M sodium orthovanadate in 88.4 mL TBST. • 16. Rabbit polyclonal antophosphotyrosine antibody, Sugen, Inc. • 17. Goat anti-rabbit horseradish peroxidase conjugated antibody, Biosource, Inc. • 18. ABTS Solution: for 1 L, mix 19.21 g citric acid, 35.49 g Na2HPO4 and 500 mg ABTS with sufficient dH2O to make 1 L. • 19. ABTS/H2O2: mix 15 mL ABST solution with 2 μL H2O2 five minutes before use. • 20. 0.2 M HCl Procedure: • 1. Coat ELISA plates with 2 μg Poly(Glu-Tyr) in 100 μL PBS, store overnight at 4° C. • 2. Block plate with 150 μL of 5% BSA/PBS for 60 min. • 3. Wash plate twice with PBS, once with 50 mM Hepes buffer pH 7.4. • 4. Add 50 μl of the diluted kinase to all wells. (Purified kinase is diluted with Kinase Dilution Buffer. Final concentration should be 10 ng/well.) • 5. Add 25 μL of the test compound (in 4% DMSO) or DMSO alone (4% in dH2O) for controls to plate. • 6. Incubate the kinase/compound mixture for 15 minutes. • 7. Add 25 μL of 40 mM MnCl2 to the negative control wells. • 8. Add 25 μL ATP/MnCl2 mixture to the all other wells (except the negative controls). Incubate for 5 min. • 9. Add 25 μL 500 mM EDTA to stop reaction. • 10. Wash plate 3× with TBST. • 11. Add 100 μL rabbit polyclonal anti-Ptyr diluted 1:10,000 in Antibody Dilution Buffer to each well. Incubate, with shaking, at room temperature for one hour. • 12. Wash plate 3× with TBST. • 13. […] Add 100 μL per well and incubate at room temperature, with shaking, for one hour. • 14. Wash plate 1× with PBS. • 15. Add 100 μl of ABTS/H2O2 solution to each well. • 16. If necessary, stop the development reaction with the addition of […] of 0.2M HCl per well. • 17.

T1 sequence (P08581 1078-1345 limits assumed): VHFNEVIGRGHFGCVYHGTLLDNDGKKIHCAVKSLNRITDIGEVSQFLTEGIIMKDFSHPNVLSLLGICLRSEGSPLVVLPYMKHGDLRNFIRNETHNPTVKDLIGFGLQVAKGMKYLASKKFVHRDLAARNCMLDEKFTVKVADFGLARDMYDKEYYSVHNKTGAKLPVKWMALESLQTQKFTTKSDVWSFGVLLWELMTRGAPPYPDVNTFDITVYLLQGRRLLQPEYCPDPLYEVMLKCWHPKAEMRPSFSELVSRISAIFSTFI

IC50 [nM] | Compound
> 20000 | Cc1ccc(C)c2c1NC(=O)/C2=N\NC(=O)C1Cc2ccccc2C1 [Example I-58, Indan-2-carboxylic acid [(3Z)-4,7-dimethyl-2-oxo-1,2-dihydro-indol-3-ylidene]-hydrazide]
> 20000 | O=C1Nc2ccccc2/C1=N/NC(=O)C1Cc2ccccc2C1 [Example I-59, Indan-2-carboxylic acid [(3Z)-2-oxo-1,2-dihydro-indol-3-ylidene)-hydrazide]
980 | Cc1cc(CCN2CCCC2)c(C)c2c1NC(=O)/C2=N\NC(=O)C(C)c1ccc(F)cc1 (stereo not shown) [Example I-62, 2-(4-Fluoro-phenyl)-propionic acid [(3Z)-4,7-dimethyl-2-oxo-5-(2-pyrrolidin-1-yl-ethyl)-1,2-dihydro-indol-3-ylidene]-hydrazide]
1050 | CCN(CC)CCc1cc(C)c2c(c1C)/C(=N/NC(=O)C(C)c1ccc(F)cc1)C(=O)N2 (stereo not shown) [Example I-63, 2-(4-Fluoro-phenyl)-propionic acid [(3Z)-5-(2-diethylamino-ethyl)-4,7-dimethyl-2-oxo-1,2-dihydro-indol-3-ylidene]-hydrazide]
6660 | O=C(Cc1ccccc1)N/N=C1\C(=O)Nc2ccccc21 [II-3, Phenyl-acetic acid [(3Z)-2-oxo-1,2-dihydro-indol-3-ylidene]-hydrazide]
5870 | O=C(Cc1ccc(Cl)cc1)N/N=C1\C(=O)Nc2ccccc21 [II-4, (4-Chloro-phenyl)-acetic acid [(3Z)-2-oxo-1,2-dihydro-indol-3-ylidene]-hydrazide]
> 20000 | COc1ccc(CC(=O)N/N=C2\C(=O)Nc3ccccc32)cc1OC [II-5, (3,4-Dimethoxy-phenyl)-acetic acid [(3Z)-2-oxo-1,2-dihydro-indol-3-ylidene]-hydrazide]
> 20000 | O=C(Cc1ccccc1)N/N=C1\C(=O)Nc2ccccc21 [II-6, Phenyl-acetic acid [(3E)-2-oxo-1,2-dihydro-indol-3-ylidene]-hydrazide]
> 20000 | O=C(Cc1ccc(Cl)cc1)N/N=C1\C(=O)Nc2ccccc21 [II-7, (4-Chloro-phenyl)-acetic acid [(3E)-2-oxo-1,2-dihydro-indol-3-ylidene]-hydrazide]
> 20000 | CC(C)Oc1ccc(CC(=O)N/N=C2\C(=O)Nc3ccccc32)cc1 [II-9, (4-Isopropoxy-phenyl)-acetic acid [(3Z)-2-oxo-1,2-dihydro-indol-3-ylidene]-hydrazide]
> 20000 | CCOc1ccc(CC(=O)N/N=C2\C(=O)Nc3ccccc32)cc1 [II-10, (4-Ethoxy-phenyl)-acetic acid [(3Z)-2-oxo-1,2-dihydro-indol-3-ylidene]-hydrazide]
> 20000 | Cc1ccc(CC(=O)N/N=C2\C(=O)Nc3ccccc32)cc1 [II-11, p-Tolyl-acetic acid [(3Z)-2-oxo-1,2-dihydro-indol-3-ylidene]-hydrazide]
7200 | COc1cccc(CC(=O)N/N=C2\C(=O)Nc3ccccc32)c1 [II-12, (3-Methoxy-phenyl)-acetic acid [(3Z)-2-oxo-1,2-dihydro-indol-3-ylidene]-hydrazide]
> 20000 | O=C(Cc1ccccc1Cl)N/N=C1\C(=O)Nc2ccccc21 [II-13, (2-Chloro-phenyl)-acetic acid [(3Z)-2-oxo-1,2-dihydro-indol-3-ylidene]-hydrazide]
5680 | O=C(Cc1cccc(Cl)c1)N/N=C1\C(=O)Nc2ccccc21 [II-14, (3-Chloro-phenyl)-acetic acid [(3Z)-2-oxo-1,2-dihydro-indol-3-ylidene]-hydrazide]
13700 | O=C(Cc1cccc(Cl)c1)N/N=C1\C(=O)Nc2ccc(Br)cc21 [II-15, (3-Chloro-phenyl)-acetic acid [(3Z)-5-bromo-2-oxo-1,2-dihydro-indol-3-ylidene]-hydrazide]
18500 | COc1ccc(CC(=O)N/N=C2\C(=O)Nc3ccc(Br)cc32)cc1OC [II-16, (3,4-Dimethoxy-phenyl)-acetic acid [(3Z)-5-bromo-2-oxo-1,2-dihydro-indol-3-ylidene)-hydrazide]

IC50 [nM] | Compound
230 | COc1ccc(C(C)C(=O)N/N=C2\C(=O)Nc3ccccc32)cc1 (stereo not shown) [II-17]
30 | CC(C(=O)N/N=C1\C(=O)Nc2ccccc21)c1ccc(O)cc1 (stereo not shown) [II-18, 2-(4-Hydroxy-phenyl)-propionic acid [(3Z)-2-oxo-1,2-dihydro-indol-3-ylidene]-hydrazide]
29 | O=C(Cc1ccc(O)cc1)N/N=C1\C(=O)Nc2ccc(F)cc21 [II-19, (4-Hydroxy-phenyl)-acetic acid [(3Z)-5-fluoro-2-oxo-1,2-dihydro-indol-3-ylidene]-hydrazide]
24 | O=C(Cc1ccc(O)cc1)N/N=C1\C(=O)Nc2ccc(Br)cc21 [II-20, (4-Hydroxy-phenyl)-acetic acid [(3Z)-5-bromo-2-oxo-1,2-dihydro-indol-3-ylidene]-hydrazide]
3100 | O=C(Cc1ccncc1)N/N=C1\C(=O)Nc2ccccc21 [II-21, Pyridin-4-yl-acetic acid [(3Z)-2-oxo-1,2-dihydro-indol-3-ylidene]-hydrazide]
> 20000 | Nc1ccc(CC(=O)N/N=C2\C(=O)Nc3ccccc32)cc1 [II-22]
520 | O=C(Cc1ccc(O)cc1)N/N=C1\C(=O)Nc2ccccc21 [II-23, (4-Hydroxy-phenyl)-acetic acid [(3E)-2-oxo-1,2-dihydro-indol-3-ylidene]-hydrazide]
> 20000 | O=C(CCc1ccc(O)cc1)N/N=C1\C(=O)Nc2ccccc21 [II-24, 3-(4-Hydroxy-phenyl)-propionic acid [(3E)-2-oxo-1,2-dihydro-indol-3-ylidene]-hydrazide]
6350 | O=C(CCc1ccc(O)cc1)N/N=C1\C(=O)Nc2ccccc21 [II-25, 3-(4-Hydroxy-phenyl)-propionic acid [(3Z)-2-oxo-1,2-dihydro-indol-3-ylidene]-hydrazide]
20 | Cc1cc(C)c2c(c1)/C(=N/NC(=O)Cc1ccc(O)cc1)C(=O)N2 [II-26, (4-Hydroxy-phenyl)-acetic acid [(3Z)-5,7-dimethyl-2-oxo-1,2-dihydro-indol-3-ylidene]-hydrazide]
2150 | O=C(Cc1ccc(F)cc1)N/N=C1\C(=O)Nc2ccccc21 [II-27, (4-Fluoro-phenyl)-acetic acid [(3Z)-2-oxo-1,2-dihydro-indol-3-ylidene]-hydrazide]
1450 | O=C(Cc1cccc(O)c1)N/N=C1\C(=O)Nc2ccccc21 [II-30, (3-Hydroxy-phenyl)-acetic acid [(3Z)-2-oxo-1,2-dihydro-indol-3-ylidene]-hydrazide]
15 | Cc1ccc(C)c2c1NC(=O)/C2=N\NC(=O)Cc1ccc(O)cc1 [II-31, (4-Hydroxy-phenyl)-acetic acid [(3Z)-4,7-dimethyl-2-oxo-1,2-dihydro-indol-3-ylidene]-hydrazide]
54 | O=C(Cc1ccc(O)cc1)N/N=C1\C(=O)Nc2c(Br)cc(Cl)cc21 [II-32, (4-Hydroxy-phenyl)-acetic acid [(3Z)-7-bromo-5-chloro-2-oxo-1,2-dihydro-indol-3-ylidene]-hydrazide]
15 | O=C(Cc1ccc(O)cc1)N/N=C1\C(=O)Nc2ccc(Cl)c(Cl)c21 [II-33, (4-Hydroxy-phenyl)-acetic acid [(3Z)-4,5-dichloro-2-oxo-1,2-dihydro-indol-3-ylidene]-hydrazide]
> 20000 | O=C(Cc1ccc(Br)cc1)N/N=C1\C(=O)Nc2ccccc21 [II-34, (4-Bromo-phenyl)-acetic acid [(3Z)-2-oxo-1,2-dihydro-indol-3-ylidene]-hydrazide]
16 | Cc1c(Br)ccc2c1/C(=N/NC(=O)Cc1ccc(O)cc1)C(=O)N2 [II-35, (4-Hydroxy-phenyl)-acetic acid [(3Z)-5-bromo-4-methyl-2-oxo-1,2-dihydro-indol-3-ylidene)-hydrazide]
